Experimental findings from patent US10335462B2, “Use of long-acting GLP-1 peptides” (Novo Nordisk A/S, priority 2012, dated 2019) are described below.

Like-named read-outs stand apart in the source and are kept apart here.

In data set [1] the test system is human subjects with type 2 diabetes. Particulars: in vivo.
Description: (§1) The placebo composition may be identical to the composition of the GLP-1 agonists, but not containing a GLP-1 agonist.
(§2) In a 12-week, randomised, double-blind, placebo-controlled trial, 411 human subjects (n=43-50 per group) with type 2 diabetes were exposed.
The test system is the same in data set [2]. The experiment in a line: 12-week randomised, double-blind, placebo-controlled trial: safety and tolerability.
Description: as §1, §2

With `CCCCCCCCCCCCCCCC(=O)N[C@@H](CCC(=O)NCCCC[C@H](NC(=O)[C@H](C)NC(=O)[C@H](C)NC(=O)[C@H](CCC(N)=O)NC(=O)CNC(=O)[C@H](CCC(=O)O)NC(=O)[C@H](CC(C)C)NC(=O)[C@H](Cc1ccc(O)cc1)NC(=O)[C@H](CO)NC(=O)[C@H](CO)NC(=O)[C@@H](NC(=O)[C@H](CC(=O)O)NC(=O)[C@H](CO)NC(=O)[C@@H](NC(=O)[C@H](Cc1ccccc1)NC(=O)[C@@H](NC(=O)CNC(=O)[C@H](CCC(=O)O)NC(=O)[C@H](C)NC(=O)[C@@H](N)Cc1cnc[nH]1)[C@@H](C)O)[C@@H](C)O)C(C)C)C(=O)N[C@@H](CCC(=O)O)C(=O)N[C@@H](Cc1ccccc1)C(=O)N[C@H](C(=O)N[C@@H](C)C(=O)N[C@@H](Cc1c[nH]c2ccccc12)C(=O)N[C@@H](CC(C)C)C(=O)N[C@H](C(=O)N[C@@H](CCCNC(=N)N)C(=O)NCC(=O)N[C@@H](CCCNC(=N)N)C(=O)NCC(=O)O)C(C)C)[C@@H](C)CC)C(=O)O` [liraglutide], in data set [1], the major hypoglycaemia result is listed as “no major hypoglycaemia”, the reports of pancreatitis result is “no reports”, the “treatment-related changes in blood calcitonin” value is “no reports” and the “withdrawals due to gastrointestinal adverse events” value is reported as 2.2%-10.
On to `CC[C@H](C)[C@H](NC(=O)[C@H](Cc1ccccc1)NC(=O)[C@H](CCC(=O)O)NC(=O)[C@H](CCCCNC(=O)COCCOCCNC(=O)COCCOCCNC(=O)CC[C@H](NC(=O)CCCCCCCCCCCCCCCCC(=O)O)C(=O)O)NC(=O)[C@H](C)NC(=O)[C@H](C)NC(=O)[C@H](CCC(N)=O)NC(=O)CNC(=O)[C@H](CCC(=O)O)NC(=O)[C@H](CC(C)C)NC(=O)[C@H](Cc1ccc(O)cc1)NC(=O)[C@H](CO)NC(=O)[C@H](CO)NC(=O)[C@@H](NC(=O)[C@H](CC(=O)O)NC(=O)[C@H](CO)NC(=O)[C@@H](NC(=O)[C@H](Cc1ccccc1)NC(=O)[C@@H](NC(=O)CNC(=O)[C@H](CCC(=O)O)NC(=O)C(C)(C)NC(=O)[C@@H](N)Cc1cnc[nH]1)[C@@H](C)O)[C@@H](C)O)C(C)C)C(=O)N[C@@H](C)C(=O)N[C@@H](Cc1c[nH]c2ccccc12)C(=O)N[C@@H](CC(C)C)C(=O)N[C@H](C(=O)N[C@@H](CCCNC(=N)N)C(=O)NCC(=O)N[C@@H](CCCNC(=N)N)C(=O)NCC(=O)O)C(C)C` [semaglutide], for which, in data set [2] (12 weeks), the “proportion of subjects with nausea and vomiting” value is “increased with dose, but were generally mild or moderate and ameliorated by titration”; the reports of pancreatitis result is given as “no reports”; the safety concerns result is recorded as “No semaglutide safety concerns were identified”; the “treatment-related changes in blood calcitonin” value is reported as “no reports”. In addition, the major hypoglycaemia entry in data set [2] (all dose groups) was “no major hypoglycaemia”. In data set [2] (range over the dose groups), the “withdrawals due to gastrointestinal adverse events” value was 4.7%-27.7. In addition, the “subjects developing low titre non-neutralising anti-semaglutide antibodies (no cross-reaction to native GLP-1)” value in data set [2] (semaglutide 1.6 mg T) is “One subject”.
